Laboratory results reported in US7312225B2, “Macrocyclic pyrimidines, their production and use as pharmaceutical agents” (Bayer Schering Pharma AG, priority 2002, dated 2007).
Read-outs that look alike come from different tables or passages of the source.

Assays:
CDK1/CycB = molecular target: T1, CDK1/CycB (Homo sapiens, UniProt P06493); test: CDK1/CycB kinase assay; format: biochemical; conditions: Table I
T1 construct: GST; purchased ProQinase GmbH, Freiburg; host or cells: baculovirus-infected insect cells (Sf9)
Method: Recombinant CDK1- and CycB-GST fusion proteins, purified from baculovirus-infected insect cells (Sf9), were purchased from ProQinase GmbH, Freiburg. Histone IIIS, which was used as a kinase substrate, is commercially available from the Sigma Company.
CDK1/CycB (200 ng/measuring point) was incubated for 15 minutes at 22° C. in the presence of various concentrations of test substances (0 μm, as well as within the range of 0.01-100 μm) in assay buffer [50 mmol of tris/HCl, pH 8.0, 10 mmol of MgCl2, 0.1 mmol of Na ortho-vanadate, 1.0 mmol of dithiothreitol, 0.5 μm of adenosine triphosphate (ATP), 10 μg/measuring point of histone IIIS, 0.2 μCi/measuring point of 33P-gamma ATP, 0.05% NP40, 12.5% dimethyl sulfoxide]. The reaction was stopped by adding EDTA solution (250 mmol, pH 8.0, 14 μl/measuring point).
From each reaction batch, 10 μl was applied to P30 filter strips (Wallac Company), and non-incorporated 33P-ATP was removed by three washing cycles of the filter strips for 10 minutes each in 0.5% phosphoric acid. After the filter strips were dried for 1 hour at 70° C., the filter strips were covered with scintillator strips (MeltiLex™ A, Wallac Company) and baked for one hour at 90° C. The amount of incorporated 33P (substrate phosphorylation) was determined by scintillation measurement in a gamma-radiation measuring device (Wallac).

MCF7 = test: Proliferation assay MCF7; format: cell-based; conditions: Homo sapiens, MCF7, 96 h, 4 days incubation, crystal violet
Text: (§1) Cultivated human tumor cells (MCF7, […] human breast cancer cells, relative to ATCC HTB22; NCI-H460, human non-small-cell lung cancer cells, ATCC HTB-177, HCT 116, human colon cancer cells, ATCC CCL-247; DU 145, hormone-independent human prostate cancer cells, ATCC HTB-81; MaTu-MDR, hormone-independent, multiple pharmaceutical agent-resistant human breast cancer cells, EPO-GmbH, Berlin) were flattened out at a density of about 5000 cells/measuring point, depending on growth rates of the respective cells in a 96-well multititer plate in 200 μl of the corresponding growth medium. After 24 hours, the cells of one plate (zero-point plate) were colored with crystal violet (see below), while the medium of the other plates was replaced by fresh culture medium (200 μl), to which the test substances were added at various concentrations (0 μmol, as well as in the range of 0.01-30 μmol; the final concentration of the solvent dimethyl sulfoxide was 0.5%). The cells were incubated for 4 days in the presence of test substances. The cell proliferation was determined by coloring the cells with crystal violet: the cells were fixed by adding 20 μl/measuring point of an 11% glutaric aldehyde solution for 15 minutes at room temperature. After three washing cycles of the fixed cells with water, the plates were dried at room temperature. The cells were colored by adding 100 μl/measuring point of a 0.1% crystal violet solution (pH was set at 3 by adding acetic acid). After three washing cycles of the colored cells with water, the plates were dried at room temperature. The dye was dissolved by adding 100 μl/measuring point of a 10% acetic acid solution. The extinction was determined by photometry at a wavelength of 595 nm. The change of cell growth, in percent, was calculated by standardization of the measured values to the extinction values of the zero-point plate (=0%) and the extinction of the untreated (0 μm) cells (=100%).

CDK2/CycE = molecular target: T2, CDK2/CycE (Homo sapiens, UniProt P24941); test: CDK2/CycE kinase assay; format: biochemical
T2 construct: GST; purchased ProQinase GmbH, Freiburg; host or cells: baculovirus-infected insect cells (Sf9)
Method: Recombinant CDK2- and CycE-GST-fusion proteins, purified from baculovirus-infected insect cells (Sf9), were purchased from ProQinase GmbH, Freiburg. Histone IIIS, which was used as a kinase substrate, was purchased from the Sigma Company.
The reaction was stopped by adding EDTA solution (250 mmol, pH 8.0, 14 μl/measuring point).
From each reaction batch, 10 μl was applied to P30 filter strips (Wallac Company), and non-incorporated ^33P-ATP was removed by subjecting the filter strips to three washing cycles for 10 minutes each in 0.5% phosphoric acid. After the filter strips were dried for one hour at 70° C., the filter strips were covered with scintillator strips (MeltiLex™ A, Wallac Company) and baked for one hour at 90° C. The amount of incorporated ^33P (substrate phosphorylation) was determined by scintillation measurement in a gamma-radiation measuring device (Wallac).

[1] = molecular target: T3, VEGF Receptor tyrosine kinase-2 (Homo sapiens, UniProt P35968); test: VEGF Rezeptor-2 kinase assay; format: biochemical; conditions: Table I; read-out: VEGF-R2 IC50
T3 construct: GST; made in house; host or cells: baculovirus-infected insect cells (Sf9)
Method: VEGF Rezeptor-2 Kinase Assay
Recombinant VEGF Receptor tyrosine kinase-2 was purified as GST-fusion protein from baculovirus-infected insect cells (Sf9). Poly-(Glu4Tyr), which was used as a kinase substrate, was purchased from the Sigma Company.
VEGF Receptor tyrosine kinase (90 ng/measuring point) was incubated for 10 minutes at 22° C. in the presence of various concentrations of test substances (0 μmol, as well as within the range of 0.001-30 μM) in 30 μl of assay buffer [40 mmol of Tris/HCl […], 10 mmol of MgCl2, 1 mmol of MnCl2, 3 μmol of Na orthovanadate, 1.0 mmol of dithiothreitol, 8 μmol of adenosine trisphosphate (ATP), 27 μg/measuring point of poly-(Glu4Tyr), 0.2 μCi/measuring point of ^33P-gamma ATP, 1% dimethyl sulfoxide]. The reaction was stopped by adding EDTA solution (250 mmol, pH 7.0, 10 μl/measuring point).
From each reaction batch, 10 μl was applied to P30 filter strips (Wallac Company), and non-incorporated 33P-ATP was removed by subjecting the filter strips to three washing cycles for 10 minutes each in 0.5% phosphoric acid. After the filter strips were dried for 1 hour at 70° C., the filter strips were covered with scintillator strips (MeltiLex™ A, Wallac Company) and baked on for 1 hour at 90° C. The amount of incorporated 33P (substrate phosphorylation) was determined by scintillation measurement in a gamma-radiation measuring device (Wallac).

HCT116 = test: Proliferation assay HCT116; format: cell-based; conditions: Homo sapiens, HCT-116, 96 h; Table II; 4 days incubation, crystal violet
Text: as §1

H460 = test: Proliferation assay H460; format: cell-based; conditions: Homo sapiens, NCI-H460, 96 h; Table II; 4 days incubation, crystal violet
Text: as §1

MaTu-ADR = test: Proliferation assay MaTu-ADR; format: cell-based; conditions: Homo sapiens, 96 h, read-out: Proliferation IC50 MaTu-ADR
Text: as §1

DU145 = test: Proliferation assay DU145; format: cell-based; conditions: Homo sapiens, DU-145, 96 h; Table II; 4 days incubation, crystal violet
Text: as §1

[2] = Table I, read-out: CDK2/CycE IC50
[3] = Table II, read-out: Proliferation IC50 MCF7
[4] = Table II, 4 days incubation, crystal violet
[5] = Table II, read-out: Inhibition IC50 CDK2/CycE

T3 sequence (P35968 20-1356): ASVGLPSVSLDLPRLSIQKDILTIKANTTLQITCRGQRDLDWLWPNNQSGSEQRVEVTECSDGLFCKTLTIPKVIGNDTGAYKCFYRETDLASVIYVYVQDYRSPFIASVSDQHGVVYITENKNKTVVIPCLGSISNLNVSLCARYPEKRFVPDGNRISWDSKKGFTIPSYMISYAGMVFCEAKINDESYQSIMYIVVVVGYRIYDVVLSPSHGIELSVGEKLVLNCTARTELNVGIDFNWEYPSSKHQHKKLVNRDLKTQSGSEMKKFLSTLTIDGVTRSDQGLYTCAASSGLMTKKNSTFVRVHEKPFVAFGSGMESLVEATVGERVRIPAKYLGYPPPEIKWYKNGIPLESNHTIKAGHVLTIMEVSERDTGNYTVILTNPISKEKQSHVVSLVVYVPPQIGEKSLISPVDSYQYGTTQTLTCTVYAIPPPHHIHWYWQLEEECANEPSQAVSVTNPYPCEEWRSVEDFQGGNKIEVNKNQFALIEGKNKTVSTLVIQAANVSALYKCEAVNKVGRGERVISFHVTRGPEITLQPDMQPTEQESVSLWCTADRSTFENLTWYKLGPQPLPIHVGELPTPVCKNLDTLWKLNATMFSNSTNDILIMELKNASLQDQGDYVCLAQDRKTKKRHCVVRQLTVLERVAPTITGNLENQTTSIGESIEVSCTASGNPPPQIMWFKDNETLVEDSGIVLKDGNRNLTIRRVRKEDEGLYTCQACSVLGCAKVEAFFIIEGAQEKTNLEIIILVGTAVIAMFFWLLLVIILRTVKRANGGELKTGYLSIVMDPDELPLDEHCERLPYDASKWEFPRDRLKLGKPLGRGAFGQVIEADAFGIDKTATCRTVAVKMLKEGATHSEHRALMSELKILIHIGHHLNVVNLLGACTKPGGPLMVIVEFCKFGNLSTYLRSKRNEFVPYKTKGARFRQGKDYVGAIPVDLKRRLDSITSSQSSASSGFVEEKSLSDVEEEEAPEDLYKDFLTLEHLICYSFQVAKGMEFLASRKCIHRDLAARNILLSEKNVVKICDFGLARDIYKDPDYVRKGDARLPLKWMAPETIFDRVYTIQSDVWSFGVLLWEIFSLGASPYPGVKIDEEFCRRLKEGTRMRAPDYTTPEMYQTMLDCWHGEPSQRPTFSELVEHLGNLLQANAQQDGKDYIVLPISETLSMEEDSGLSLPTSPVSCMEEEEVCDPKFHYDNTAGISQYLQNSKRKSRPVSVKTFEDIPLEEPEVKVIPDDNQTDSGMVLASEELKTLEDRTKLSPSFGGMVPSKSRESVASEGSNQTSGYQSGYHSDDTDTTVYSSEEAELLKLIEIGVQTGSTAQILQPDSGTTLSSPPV
T1 sequence (P06493 whole entry): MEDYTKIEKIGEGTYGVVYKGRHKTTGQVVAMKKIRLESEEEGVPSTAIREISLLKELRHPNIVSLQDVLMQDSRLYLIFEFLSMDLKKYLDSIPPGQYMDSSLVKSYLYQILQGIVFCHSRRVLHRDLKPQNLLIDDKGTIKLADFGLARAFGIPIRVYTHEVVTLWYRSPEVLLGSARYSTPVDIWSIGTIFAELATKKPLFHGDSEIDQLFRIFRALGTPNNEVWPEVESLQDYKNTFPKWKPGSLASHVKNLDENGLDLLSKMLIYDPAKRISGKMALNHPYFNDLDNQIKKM
T1 sequence (P14635 whole entry partner): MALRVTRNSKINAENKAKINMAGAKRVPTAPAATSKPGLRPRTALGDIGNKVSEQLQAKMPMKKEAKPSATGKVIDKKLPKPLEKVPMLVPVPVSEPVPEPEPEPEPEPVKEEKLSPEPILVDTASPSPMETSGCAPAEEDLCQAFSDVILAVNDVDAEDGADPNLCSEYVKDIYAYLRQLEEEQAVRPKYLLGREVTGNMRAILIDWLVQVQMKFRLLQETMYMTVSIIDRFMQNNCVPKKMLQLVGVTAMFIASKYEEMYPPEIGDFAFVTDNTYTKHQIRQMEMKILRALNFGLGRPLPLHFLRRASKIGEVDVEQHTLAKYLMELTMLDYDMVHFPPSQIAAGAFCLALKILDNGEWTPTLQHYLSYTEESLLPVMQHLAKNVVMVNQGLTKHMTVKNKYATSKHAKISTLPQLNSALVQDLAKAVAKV

Row | IC50 (CDK1/CycB) [nM] | IC50 (MCF7; Table I, read-out: MCF7 IC50) [nM] | IC50 (CDK2/CycE; [2]) [nM] | IC50 [1] [nM] | IC50 (HCT116) [nM] | IC50 (H460) [nM] | IC50 (MCF7; [3]) [nM] | IC50 (CDK2/CycE; [5]) [nM] | IC50 (DU145) [nM] | SMILES | IC50 (MaTu-ADR; [4]) [nM] | IC50 (MaTu-ADR) [nM]
1 | 40 | 2600 | 510 | – | – | – | – | – | – | O=S1(=O)NCC(O)CNc2nc(ncc2Br)Nc2cccc1c2 (racemic) [Example 1.2, rac-1^5-Bromo-4-thia-2,5,9-triaza-1(2,4)-pyrimidina-3(1,3)-benzenacyclononaphan-7-ol-4,4-dioxide] | – | –
2 | – | 900 | 23 | 69 | – | – | – | – | – | O=S1(=O)NCCC(CO)Nc2nc(ncc2Br)Nc2cccc1c2 (single isomer, unassigned) [1.3 (+) Enantiomer] | – | –
3 | – | – | – | – | 1400 | 2100 | 900 | 23 | 4000 | O=S1(=O)NCCC(CO)Nc2nc(ncc2Br)Nc2cccc1c2 (single isomer, unassigned) [Example 1.3 (+) Enantiomer] | 4000 | –
4 | 200 | 1100 | 420 | – | 1300 | 1800 | 1100 | 420 | 2000 | O=S1(=O)NCCCCCNc2nc(ncc2Br)Nc2cccc1c2 [Example 1.0, 1^5-Bromo-4-thia-2,5,11-triaza-1(2,4)-pyrimidina-3(1,3)-benzenacycloundecaphane 4,4-dioxides] | 700 | –
5 | 20 | 200 | – | 40 | 200 | 300 | – | – | 2200 | O=S1(=O)NCCCNc2nc(ncc2Br)Nc2cccc1c2 [Example 1.1, 1^5-Bromo-4-thia-2,5,9-triaza-1(2,4)-pyrimidina-3(1,3)-benzenacyclononaphane-4,4-dioxide] | – | 120
6 | – | 400 | – | 11 | < 100 | 200 | 400 | – | 700 | Nc1cc2cc(c1)S(=O)(=O)NCCCNc1nc(ncc1Br)N2 [Example 1.4, 1^5-Bromo-4-thia-2,5,9-triaza-1(2,4)-pyrimidina-3(1,3)-benzenacyclononaphan-3^5-amine-4,4-dioxides] | 100 | –
7 | 50 | 1600 | 160 | 89 | – | – | – | – | – | O=S1(=O)NCCCOc2nc(ncc2Br)Nc2cccc1c2 [Example 3.0, 1^5-Bromo-9-oxa-4-thia-2,5-diaza-1(2,4)-pyrimidina-3(1,3)-benzenacyclononaphane-4,4-dioxide] | – | –
8 | 300 | – | – | – | – | – | – | – | – | N#Cc1cnc2nc1NCCCNS(=O)(=O)c1cccc(c1)N2 [Example 5.0, 1^5-Cyano-4-thia-2,5,9-triaza-1(2,4)-pyrimidina-3(1,3)-benzenacyclononaphane 4,4-dioxide] | – | –
9 | – | – | – | – | – | – | 4000 | 2400 | – | Brc1cnc2nc1NCCCCOc1cccc(c1)N2 [Example 7.1, 1^5-Bromo-4-oxa-2,9-diaza-1(2,4)-pyrimidina-3(1,3)-benzenacyclononaphane] | – | –
10 | 360 | 6000 | 120 | – | – | – | – | – | – | O=C1NCCCNc2nc(ncc2Br)Nc2cccc(c2)N1 [Example 10.0, 1^5-Bromo-2,4,6,10-tetraaza-1(2,4)-pyrimidina-3(1,3)-benzenacyclodecaphan-5-one] | – | –
11 | – | – | – | – | – | – | – | 5000 | – | CCc1cnc2nc1NCCCCCNS(=O)(=O)c1cccc(c1)N2 [Example 14.2] | – | –
12 | 1700 | 4000 | 250 | – | – | – | – | 2000 | – | O=S1(=O)NCCCC[C@@H](CO)Nc2nc(ncc2Br)Nc2cccc1c2 [Example 14.4] | – | –
13 | 90 | 700 | 320 | – | 500 | 700 | 700 | 320 | 1700 | O=S1(=O)NCCCCNc2nc(ncc2Br)Nc2cccc1c2 [Example 14.6] | 300 | –
14 | 200 | – | – | – | – | – | – | – | – | O=S1(=O)NCCC(O)CNc2nc(ncc2Br)Nc2cccc1c2 (centres unmarked) [Example 14.8] | – | –
15 | – | 1900 | 65 | 190 | 100 | 100 | 300 | – | 400 | O=S1(=O)NCCCCNc2nc(ncc2Br)Nc2csc1c2 [Example 14.10] | – | –
16 | 200 | 750 | 2400 | – | 700 | 900 | 750 | 2400 | 900 | NS(=O)(=O)c1ccc2cc1OCCCCCNc1nc(ncc1Br)N2 [Example 14.11] | 1300 | –
17 | 1500 | 1300 | 130 | – | 1000 | 1200 | 1300 | 1500 | 1200 | O=S1(=O)N[C@H]2CC[C@@H](CC2)Nc2nc(ncc2Br)Nc2cccc1c2 [Example 14.15] | 1300 | –
18 | 300 | > 10000 | 4400 | – | – | – | – | – | – | Cc1ccc2cc1S(=O)(=O)NCCCNc1nc(ncc1Br)N2 [Example 14.16] | – | –
19 | 80 | 2100 | 30 | 370 | – | – | – | – | – | OCC1CCCOc2cccc(c2)Nc2ncc(Br)c(n2)N1 (centres unmarked) [Example 14.18] | – | –
